Laboratory results as given in US7557123B2, “Heterocyclic compound and medicinal use thereof” (Kyoto Pharmaceutical Industries, Ltd., priority 2001, dated 2009).

Assays:
[1] = test system: male KK-A^y mice; test: Hypoglycemic and hypolipidemic activity in spontaneously diabetic KK-Ay mice; type: in vivo; settings: 10 mg/kg/day orally for 4 consecutive days, plasma 24 hours after final administration, non-fasting, vs control group
Protocol: Blood was drawn under a non-fasting state from the tail vein of male KK-A^y mice, and the glucose and triglyceride levels of the plasma were measured using commercially available assay kits (glucose CII-test WAKO and triglyceride G-test WAKO, Wako Pure Chemical Industries, Ltd.). The mice were grouped (5 mice per group) into a control group and an administration group, such that the mean and standard deviation of the body weight and the plasma glucose and plasma triglyceride levels in each group were nearly the same. The test compounds (compounds of Examples 1, 2, 4, 8, 20, 22, 24, 27, 30, 33, 36, 37, 40, 45, 47, 52, 56, 58 and 64) were suspended in 5% gum arabic solution and administered (10 mg/kg/day) orally to the administration group for 4 consecutive days. The 5% gumarabic solution was orally administered to the control group. Blood was drawn under a non-fasting state from the tail vein 24 hours after the final administration and the glucose and triglyceride levels of the plasma were measured. The decrease in the plasma glucose and triglyceride levels was calculated from the following formula. Decrease (%)=[(mean of control group−mean of test compound administration group)/mean of control group]×100 Results

[2] = test system: male db/db mice; test: Hypoglycemic and hypolipidemic activity in db/db mice; type: in vivo; settings: 3 mg/kg/day orally for 2 consecutive weeks, plasma 24 hours after final administration, non-fasting, vs control group
Protocol: Using db/db mice genetically showing high plasma glucose, hypertriglyceridemia, insulin resistance and obesity, the pharmacological activity of the test compounds of Examples 1, 2 and 20 was examined.
Blood was drawn under a non-fasting state from the tail vein of male db/db mice, the glucose level and triglyceride level of the plasma were measured using commercially available assay kits (glucose CII-test WAKO and triglyceride G-test WAKO, Wako Pure Chemical Industries, Ltd.). The mice were grouped (6 mice per group) into a control group and test compound (compounds of Examples 1, 2 and 20) administration group (3 mg/kg/day), such that the mean and standard deviation of the body weight and the plasma glucose and plasma triglyceride levels in each group were nearly the same. The test compound was suspended in 0.5% methylcellulose solution and administered orally for 2 consecutive weeks from the next day. The 0.5% methylcellulose solution was orally administered to the control group. Blood was drawn under a non-fasting state from the tail vein 24 hours after the final administration and the glucose and triglyceride levels of the plasma were measured. The decrease in the plasma glucose and triglyceride levels was calculated from the following formula. Decrease (%)=[(mean of control group−mean of test compound administration group)/mean of control group]×100 Results

[3] = Solubility of the compound in water (buffer pH 7.0); type: physicochemical
Protocol: The pulverized test compound (compounds of Examples 2, 20, 22, 24, 27, 30, 40 or 65, 25 mg) was added to a buffer (1.0 ml, pH 7.0) and the mixture was shaken at 25° C. for 1 hr and passed through a membrane filter. The concentration of the test compound in the filtrate was measured by high performance liquid chromatography.

[4] = 25 mg in 1.0 ml buffer pH 7.0, shaken at 25° C. for 1 hr, filtrate by HPLC

Row | SMILES | Decrease (%) in glucose level [1] | Decrease (%) in triglyceride level [1] | further results
1 | CCC/C=C/c1nc(CCOc2ccc3c(c2)CN(C(=O)C=CCCCC)[C@H](C(=O)[O-])C3)c(C)o1.[Na+] (stereo in doubt) [Example 1, sodium 2-(2-heptenoyl)-7-[2-(5-methyl-2-(trans-1-penten-1-yl)oxazol-4-yl)ethoxy]-1,2,3,4-tetrahydroisoquinoline-(3S)-carboxylate] | 46.1% | 45.3% | Decrease (%) in glucose level [2]: 21.3%; Decrease (%) in triglyceride level [2]: 62.7%
2 | CCCC#CC(=O)N1Cc2cc(OCCc3nc(/C=C/CCC)oc3C)ccc2C[C@H]1C(=O)O (stereo in doubt) [Example 4, 2-(2-hexynoyl)-7-[2-(5-methyl-2-(trans-1-penten-1-yl)oxazol-4-yl)ethoxy]-1,2,3,4-tetrahydroisoquinoline-(3S)-carboxylic acid] | 40.3% | 40.5% | 
3 | CC(C)(C)N.CC=CC=CC(=O)N1Cc2cc(OCCc3nc(/C=C/C4CCCC4)oc3C)ccc2C[C@H]1C(=O)O (stereo in doubt) [Example 22, tert-butylamine 7-{2-[2-(trans-2-cyclopentylvinyl)-5-methyloxazol-4-yl]ethoxy}-2-(2,4-hexadienoyl)-1,2,3,4-tetrahydroisoquinoline-(3S)-carboxylate] | 45.3% | 51.4% | Solubility (mg/ml) [3, 4]: 25 or above mg/ml
4 | CC(C)(C)N.CCCCC=CC(=O)N1Cc2cc(OCCc3nc(/C=C/CC(C)C)oc3C)ccc2C[C@H]1C(=O)O (stereo in doubt) [Example 24, tert-butylamine-2-(2-heptenoyl)-7-{2-[5-methyl-2-(4-methyl-trans-1-penten-1-yl)oxazol-4-yl]ethoxy}-1,2,3,4-tetrahydroisoquinoline-(3S)-carboxylate] | 52.8% | 50.7% | Solubility ([3]; pH 7): 18.7 mg/mL
5 | CC(C)(C)N.CC=CC=CC(=O)N1Cc2cc(OCCc3nc(/C=C/CCCC)oc3C)ccc2C[C@H]1C(=O)O (stereo in doubt) [Example 27, tert-butylamine 2-(2,4-hexadienoyl)-7-{2-[2-(trans-1-hexen-1-yl)-5-methyloxazol-4-yl]ethoxy}-1,2,3,4-tetrahydroisoquinoline-(3S)-carboxylate] | 53.4% | 36.5% | Solubility (mg/ml) [3, 4]: 25 or above mg/ml
6 | CC(C)(C)N.CC=CC=CC(=O)N1Cc2cc(OCCc3nc(/C=C/CCC(C)C)oc3C)ccc2C[C@H]1C(=O)O (stereo in doubt) [Example 30, tert-butylamine 2-(2,4-hexadienoyl)-7-{2-[5-methyl-2-(5-methyl-trans-1-hexen-1-yl)oxazol-4-yl]ethoxy}-1,2,3,4-tetrahydroisoquinoline-(3S)-carboxylate] | 55.4% | 57.0% | Solubility [3, 4]: 17.3 mg/mL
7 | CC(C)(C)N.CC=CC=CC(=O)N1Cc2cc(OCCc3nc(/C(C)=C/CCC)oc3C)ccc2C[C@H]1C(=O)O (stereo in doubt) [Example 33, tert-butylamine 2-(2,4-hexadienoyl)-7-(2-[5-methyl-2-(1-methyl-trans-1-penten-1-yl)oxazol-4-yl]ethoxy}-1,2,3,4-tetrahydroisoquinoline-(3S)-carboxylate] | 58.2% | 68.3% | 
8 | CC(C)(C)N.CC=CC=CC(=O)N1Cc2cc(OCCc3nc(/C(C)=C/CC)oc3C)ccc2C[C@H]1C(=O)O (stereo in doubt) [Example 36, tert-butylamine 2-(2,4-hexadienoyl)-7-{2-[5-methyl-2-(1-methyl-trans-1-buten-1-yl)oxazol-4-yl]ethoxy}-1,2,3,4-tetrahydroisoquinoline-(3S)-carboxylate] | 39.8% | 27.5% | 
9 | CCC/C=C/c1nc(CCOc2ccc3c(c2)CN(C(=O)C(F)(F)C(F)(F)F)[C@H](C(=O)O)C3)c(C)o1 (stereo in doubt) [Example 37] | 53.2% | 50.1% | 
10 | CC(C)(C)N.CC=CC=CC(=O)N1Cc2cc(OCCc3nc(/C=C/C4CCCCC4)oc3C)ccc2C[C@H]1C(=O)O (stereo in doubt) [Example 40] | 54.3% | 37.0% | Solubility [3, 4]: 18.7 mg/mL
11 | CC(C)(C)N.CC=CC=CC(=O)N1Cc2cc(OCCc3nc(/C=C/CC(C)(C)C)oc3C)ccc2C[C@H]1C(=O)O (stereo in doubt) [Example 45, tert-butylamine 7-{2-[2-(4,4-dimethyl-trans-1-penten-1-yl)-5-methyloxazol-4-yl]ethoxy)-2-(2,4-hexadienoyl)-1,2,3,4-tetrahydroisoquinoline-(3S)-carboxylate] | 38.7% | 32.6% | 
12 | CC(C)(C)N.CCC/C=C/c1nc(CCOc2ccc3c(c2)CN(C(=O)C=CCC(C)C)[C@H](C(=O)O)C3)c(C)o1 (stereo in doubt) [Example 47, tert-butylamine 2-(5-methyl-2-hexenoyl)-7-(2-[5-methyl-2-(trans-1-penten-1-yl)oxazol-4-yl]ethoxy}-1,2,3,4-tetrahydroisoquinoline-(3S)-carboxylate] | 29.9% | 10.9% | 
13 | CC(C)(C)N.CCC/C=C/c1nc(CCOc2ccc3c(c2)CN(C(=O)C(F)(F)CC)[C@H](C(=O)O)C3)c(C)o1 (stereo in doubt) [Example 52, tert-butylamine 2-(2,2-difluorobutyryl)-7-{2-[5-methyl-2-(trans-1-penten-1-yl)oxazol-4-yl]ethoxy}-1,2,3,4-tetrahydroisoquinoline-(3S)-carboxylate] | 26.6% | 19.1% | 
14 | CC(C)(C)N.CC=CC=CC(=O)N1Cc2cc(OCCc3nc(/C=C/C4(C)CCCCC4)oc3C)ccc2C[C@H]1C(=O)O (stereo in doubt) [Example 56] | 21.0% | 11.9% | 
15 | C=CCCCN1Cc2cc(OCCc3nc(/C=C/CC(C)C)oc3C)ccc2C[C@H]1C(=O)O (stereo in doubt) [Example 58, 7-{2-[5-methyl-2-(4-methyl-trans-1-penten-1-yl)oxazol-4-yl]ethoxy}-2-(4-pentenyl)-1,2,3,4-tetrahydroisoquinoline-(3S)-carboxylic acid] | 25.1% | 23.2% | 
16 | C=CCCN1Cc2cc(OCCc3nc(/C=C/CC(C)C)oc3C)ccc2C[C@H]1C(=O)O (stereo in doubt) [Example 64, 2-(3-butenyl)-7-{2-[5-methyl-2-(4-methyl-trans-1-penten-1-yl)oxazol-4-yl]ethoxy}-1,2,3,4-tetrahydroisoquinoline-(3S)-carboxylic acid] | 29.4% | 25.1% | 
17 | CC(C)(C)N.CC=CC=CC(=O)N1Cc2cc(OCCc3nc(/C=C/COC)oc3C)ccc2C[C@H]1C(=O)O (stereo in doubt) [Example 65] |  |  | Solubility [3, 4]: 20.5 mg/mL
18 | Cc1oc(C=Cc2ccccc2)nc1CCOc1ccc2c(c1)CN(C(=O)C(F)(F)C(F)(F)F)[C@H](C(=O)O)C2 [Example 8, 7-[2-(5-methyl-2-styryloxazol-4-yl)ethoxy]-2-pentafluoropropionyl-1,2,3,4-tetrahydroisoquinoline-(3S)-carboxylic acid] | 57.2% | 71.1% | 
